Several values for one entry are separate records, joined by “and”; a condition that tells them apart may be missing. Equal values may be shown once. Read-outs that look alike come from different tables or passages of the source. Each block holds one compound with its values, some of them ahead of it.
Assays:
[1] = system: blood-perfused sino-atrial preparation; assay: sinus rate on blood-perfused sino-atrial preparation; set-up: species or system dog; conditions: for activation at 0.001 mg: dose 1.0 ug; for activation at 0.003 mg: dose 3.0 ug; for activation at 0.01 mg: dose 10.0 ug; for activation at 0.03 mg: dose 30.0 ug
Description: Determination of sinus rate on blood-perfused sino-atrial preparation: Mongrel gods of either sex weighing 7-12 kg were anesthetized with sodium pentoba rbital (30 mg/kg i.v.). Heparin ob 1000 unit/kg was administered to each animal intravenously and the animals were exsanguinated. Heart was removed and put in Krebs-Henseleit solution. Catheter was inserted into blood vessel between right coronary artery and SA nodes. Right atrium and catheter were together removed. Blood supplied from carotid artery of donor dog of either sex weighing 15-25 kg, was supplied to blood vessel cather from right coronary artery and SA node under constant blood pressure of 100 mmHG by use of Peristaltic pump. The resting tension of right atrial muscle was made to 2g. The sinus rate triggered by spontaneous contraction of atrial muscle was determined on Narco physiograph Narcotrace 4). Detailed method was reported by S. Chiba, et al. in Japanese Pharmacology 25, 433-439(1975). Doses of test compounds were injected into flowing blood in gum tube connected to the near part of the catheter inserted into right coronary artery. The effects on sinus rate were shown as percent compared with the sinus ratio prior to the injection of the test compounds.

[2] = target: T1, cyclic AMP phosphodiesterase (Canis lupus familiaris, UniProt A0A8I3NYE0); assay: effect on cyclic AMP phosphodiesterase isolated from dog's heart; assay type: biochemical; conditions: substrate 1.0 uM; for IC50: pH 8.0, read-out: IC 50 (50% inhibition of substrate hydrolysis); for inhibition at 10 µM / inhibition at 100 µM / Inhibitory effect on PDE activity: falls with concentration; for inhibition at 10 µM / inhibition at 100 µM: read-out: Inhibitory effect on PDE activity; for Inhibitory effect on PDE activity: unit assumed
T1 construct: Two to four grams of left ventricular muscle was obtained; from tissue; host or cells: dog left ventricular muscle, detergent-extracted particulate fraction, DEAE-cellulose pool
T1 sequence (A0A8I3NYE0 1-1135): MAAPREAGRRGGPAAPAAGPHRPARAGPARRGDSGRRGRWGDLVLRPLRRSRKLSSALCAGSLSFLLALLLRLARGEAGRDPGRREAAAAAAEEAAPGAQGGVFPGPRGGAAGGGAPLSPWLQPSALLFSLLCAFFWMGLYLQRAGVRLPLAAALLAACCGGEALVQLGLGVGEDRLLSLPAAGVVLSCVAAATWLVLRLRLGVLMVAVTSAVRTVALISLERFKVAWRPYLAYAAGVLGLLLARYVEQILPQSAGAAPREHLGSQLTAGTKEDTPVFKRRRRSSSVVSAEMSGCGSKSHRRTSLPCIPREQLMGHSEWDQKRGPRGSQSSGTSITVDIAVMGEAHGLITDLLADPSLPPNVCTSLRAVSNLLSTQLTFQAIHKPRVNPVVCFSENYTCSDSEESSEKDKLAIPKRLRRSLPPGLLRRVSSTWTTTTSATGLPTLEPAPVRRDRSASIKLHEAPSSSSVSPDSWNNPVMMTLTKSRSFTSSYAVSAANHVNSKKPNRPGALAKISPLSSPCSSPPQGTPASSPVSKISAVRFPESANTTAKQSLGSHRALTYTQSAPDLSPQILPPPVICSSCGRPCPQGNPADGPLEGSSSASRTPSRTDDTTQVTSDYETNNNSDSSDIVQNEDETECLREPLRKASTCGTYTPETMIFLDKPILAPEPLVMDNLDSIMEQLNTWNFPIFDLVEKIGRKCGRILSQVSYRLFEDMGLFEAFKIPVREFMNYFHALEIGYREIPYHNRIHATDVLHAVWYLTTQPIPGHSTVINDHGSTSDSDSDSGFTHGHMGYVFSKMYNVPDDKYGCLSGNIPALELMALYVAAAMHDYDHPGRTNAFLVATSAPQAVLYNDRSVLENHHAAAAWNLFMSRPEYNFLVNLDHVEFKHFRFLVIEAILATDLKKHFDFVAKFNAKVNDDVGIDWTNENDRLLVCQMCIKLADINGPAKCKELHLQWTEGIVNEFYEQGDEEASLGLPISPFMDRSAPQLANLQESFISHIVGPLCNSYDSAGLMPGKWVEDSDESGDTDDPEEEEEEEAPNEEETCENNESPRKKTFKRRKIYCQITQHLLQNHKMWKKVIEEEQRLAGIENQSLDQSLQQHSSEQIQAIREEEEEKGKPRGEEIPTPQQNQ

anesthetized cats = assay: cardiotonic effect on anesthetized cats; assay type: in vivo, cat; conditions: Felis catus; for change in vivo at 0.01 mg/kg: 0.01 mg/Kg iv; for change in vivo at 0.1 mg/kg: 0.1 mg/Kg iv; for change in vivo at 0.31 mg/kg: 0.31 mg/Kg iv
Description: Determination of cardiotonic effect on anesthetized cats: Male cats weighing about 3 kg were anesthetized with sodium pentobarbital (30 mg/kg, i.p.). The same anesthetic was infused intravenously at the does of 4 mg/kg/hr in order to maintain the anesthetic state and mechanically ventilated through a cuffed endotracheal tube, chest was opened by a midline incision and a catheter for measuring left ventricular pressure was inserted through apex into left ventricle and the left ventricular pressure was measured. LVdP/dt was determined by use of diffentiator from the left ventricular pressure. Systemic blood pressure was measured by the left femoral artery by a pressure transducer and heart rate was measured by a cardiotachometer triggered by blood pressure pulses. Test compound was injected into the femoral vein by use of cannule. After completion of the surgical procedures, the cats were allowed to recover about 30 minutes before drug administration. These compounds were dissolved in 0.9% physiological saline and diluted with saline. Solvent such as DMSO or DMF was also used, if necessary. Test compound of 0.1 ml/kg was used. Detailed method was reporated in J. Med. Chem. 30. 1279-87(1987).

[3] = system: blood perfused papillary muscle preparation; assay: contractile power on blood perfused papillary muscle preparation; set-up: species or system dog; conditions: for activation at 0.001 mg: dose 1.0 ug; for activation at 0.003 mg: dose 3.0 ug; for ED 30 (developed tension of papillary muscle): least-square method; for activation at 0.01 mg: dose 10.0 ug; for activation at 0.03 mg: dose 30.0 ug
Description: Determination of contractile power on blood perfused papillary muscle preparation:
Dogs of either sex weighing 7-12 kg were anesthetized with sodium pentobarbital (30 mg/kg, i.v.). Heparin of 1000 unit/kg was administered to each animal intravenously. The animals were exsanguinated and heart was removed. The preparation was perfused through the cannulated anterior septal artery (ASA) with arterial blood from a donor dog at constant pressure of about […]. Donor dogs were anesthetized with sodium pentobarbital (30 mg/kg, i.v.). Heparin of 1000 units/kg was administered intravenously. The papillary muscle was stimulated with rectangular pulses of 5- ms duration and about 1.5 times the threshold voltage at a rate of 120 stimuli/min through bipolar electrodes. Resting tension was made to 2 g. The developed tension of papillary muscle was determined by Isometric tresducer. Detailed method was reporated by Matsumoto in Am J. Physiol. 218, 1459-1463 (1970). Test compound at the doses of 10-30 ul was injected in flowing blood in the gum tube connected to catheter. The inotropic effect of the test compounds was shown by change percent of developed tension compared with that prior to the administration of the test compounds.

[4] = Canis lupus familiaris, read-out: change of sinus rate (%)
[5] = Canis lupus familiaris, read-out: change of contractivity (%)

IC50 [2]: 2.4 µM and 4.3 µM and 4.05 µM
Compound: Cc1cn(-c2cc(C)c3c(c2)COC(=O)N3)cn1 [8-methyl-6-(4-methylimidazol-1-yl)-(4H)-3,1-benzoxazin-2-one]
activation at 0.0001 mg ([1]; Canis lupus familiaris, dose 0.1 ug, read-out: change of sinus rate (%)): 0.8% | activation at 0.0003 mg ([1]; Canis lupus familiaris, dose 0.3 ug, read-out: change of sinus rate (%)): 1.7% | activation at 0.001 mg [1, 4]: 6.6% | activation at 0.003 mg [1, 4]: 5.8% | change of sinus rate (%) ([1]; at the ED 30 dose): +5.0% | change in vivo at 0.01 mg/kg (anesthetized cats; read-out: HR (%)): 2% | change in vivo at 0.01 mg/kg (anesthetized cats; read-out: LV dp/dt (%)): 20% | change in vivo at 0.01 mg/kg (anesthetized cats; read-out: LVP (%)): 0.1% | change in vivo at 0.01 mg/kg (anesthetized cats; read-out: SBP (%)): -1.7% | change in vivo at 0.01 mg/kg (anesthetized cats; read-out: dBP): -8.5% | change in vivo at 0.01 mg/kg (anesthetized cats; read-out: mBP (%)): -5.5% | change in vivo at 0.1 mg/kg (anesthetized cats; read-out: HR (%)): 7.5% | change in vivo at 0.1 mg/kg (anesthetized cats; read-out: LV dp/dt (%)): 50% | change in vivo at 0.1 mg/kg (anesthetized cats; read-out: LVP (%)): 4.4% | change in vivo at 0.1 mg/kg (anesthetized cats; read-out: SBP (%)): -6.6% | change in vivo at 0.1 mg/kg (anesthetized cats; read-out: dBP): -20% | change in vivo at 0.1 mg/kg (anesthetized cats; read-out: mBP (%)): -13.9% | change in vivo at 0.31 mg/kg (anesthetized cats; read-out: HR (%)): 4.4% | change in vivo at 0.31 mg/kg (anesthetized cats; read-out: LV dp/dt (%)): 40% | change in vivo at 0.31 mg/kg (anesthetized cats; read-out: LVP (%)): 1.2% | change in vivo at 0.31 mg/kg (anesthetized cats; read-out: SBP (%)): -3.4% | change in vivo at 0.31 mg/kg (anesthetized cats; read-out: dBP): -14.3% | change in vivo at 0.31 mg/kg (anesthetized cats; read-out: mBP (%)): -9.3% | activation at 0.0001 mg ([3]; Canis lupus familiaris, dose 0.1 ug, read-out: change of contractivity (%)): 4.3% | activation at 0.0003 mg ([3]; Canis lupus familiaris, dose 0.3 ug, read-out: change of contractivity (%)): 8.7% | activation at 0.001 mg [3, 5]: 23.9% | activation at 0.003 mg [3, 5]: 79.2% | ED 30 (developed tension of papillary muscle) [3]: 1.2 µg

inhibition at 10 µM ([2]; 10 uM test compound): 60% | inhibition at 100 µM ([2]; 100 uM test compound): 41.8% | IC50 [2]: 31 µM and 12.7 µM
Compound: O=C1Nc2ccc(-n3ccnc3)cc2CO1 [6-(imidazol-1-yl)-(4H)-3,1-benzoxazin-2-one]
activation at 0.001 mg [1, 4]: 0% | activation at 0.003 mg [1, 4]: 0.84% | activation at 0.01 mg [1, 4]: 2.52% | activation at 0.03 mg [1, 4]: 6.67% | activation at 0.001 mg [3, 5]: 3.33% | activation at 0.003 mg [3, 5]: 6.95% | activation at 0.01 mg [3, 5]: 9.76% | activation at 0.03 mg [3, 5]: 16.2% | ED 30 (developed tension of papillary muscle) [3]: > 1000 µg

The next lines start with the compound.

Compound: 6-(2-methylimidazol-1-yl)-(4H)-3,1-benzimidazol-2-one
Inhibitory effect on PDE activity ([2]; 0.1 uM test compound): 95.9% | Inhibitory effect on PDE activity ([2]; 1 uM test compound): 86.8% | Inhibitory effect on PDE activity ([2]; 10 uM test compound): 62.6% | Inhibitory effect on PDE activity ([2]; 100 uM test compound): 37.9% | IC50 [2]: 32.4 µM

Compound: Cc1nccn1-c1ccc2c(c1)COC(=O)N2 [6-(2-methylimidazol-1-yl)-(4H)-3,1-benzoxazine-2-one]
activation at 0.001 mg [1, 4]: 0% | activation at 0.003 mg [1, 4]: 0% | activation at 0.01 mg [1, 4]: 0.86% | activation at 0.03 mg [1, 4]: 3.42% | inhibition at 10 µM ([2]; 10 uM test compound): 51.7% | inhibition at 100 µM ([2]; 100 uM test compound): 35.8% | IC50 [2]: 12.8 µM | activation at 0.001 mg [3, 5]: 0% | activation at 0.003 mg [3, 5]: 2.44% | activation at 0.01 mg [3, 5]: 8.57% | activation at 0.03 mg [3, 5]: 13.5% | ED 30 (developed tension of papillary muscle) [3]: > 1000 µg

Compound: O=C1Nc2ccc(-n3cnc4ccccc43)cc2CO1 [6-(benzimidazol-1-yl)-(4H)-3,1-benzoxazin-2-one]
activation at 0.001 mg [1, 4]: 0% | activation at 0.003 mg [1, 4]: 0% | activation at 0.01 mg [1, 4]: 0.3% | activation at 0.03 mg [1, 4]: 0.75% | inhibition at 10 µM ([2]; 10 uM test compound): 61.6% | inhibition at 100 µM ([2]; 100 uM test compound): 30.1% | activation at 0.001 mg [3, 5]: 0% | activation at 0.003 mg [3, 5]: 1.13% | activation at 0.01 mg [3, 5]: 2.63% | activation at 0.03 mg [3, 5]: 5.24% | ED 30 (developed tension of papillary muscle) [3]: > 1000 µg

Source: patent US5171851A, “Imidazole substituted benzoxazine or benzothiazine derivatives” (Dong-A Pharm. Co., Ltd., priority 1990, dated 1992)
